Data on 40 compounds can be found in ChEMBL document CHEMBL3091347, “Comparison of Multiple Linear Regressions and Neural Networks based QSAR models for the design of new antitubercular compounds” (Eur J Med Chem, 2013).

Molecules are shown by their SMILES. Values after ≈ are worked out from the molar mass of the structure shown.

By logP is commonly meant a log measure of how a compound divides between an organic and an aqueous phase. Usually MIC stands for the lowest concentration that inhibits growth of the organism. A higher MIC goes with a less susceptible organism.

A short description of data set [1]: Lipophilicity, log P of the compound. To be noted: octanol/water.
Data set [2] concerns Mycobacterium tuberculosis. The data set is described as follows: Antitubercular activity against Mycobacterium tuberculosis H37Rv. Format: functional. The following applies: for MIC: Mycobacterium tuberculosis, H37Rv.
For data set [3], the system named is Mycobacterium tuberculosis. The data set is described as follows: Antitubercular activity against Mycobacterium tuberculosis. To be noted: for MIC: Mycobacterium tuberculosis. Format: functional.

`CCn1cc(C(=O)O)c(=O)c2cc(F)c(N3CCN(Cc4cccc(/C(C)=N/NC(=O)c5ccncc5)c4O)C(C)C3)c(F)c21` (stereo not given) returned a logP in data set [1] (logP) of 4.81. In addition, in data set [2], the “log(1/MIC)” value is 0.09873 and the MIC was 0.8 µg/mL (≈ 1.29 µM).
For `C=Cc1cc(C(=O)NN)ccn1`, in that order: -1.69, -0.7567 and 5.71 µg/mL (≈ 35 µM).
For `C/C(=N\NC(=O)c1ccncc1)c1cccc(CN2CCN(c3cc4c(cc3F)c(=O)c(C(=O)O)cn4C3CC3)CC2)c1O`, in that order: 4.2, 0.09913 and 0.8 µg/mL (≈ 1.34 µM).
The corresponding values for `C/C(=N\NC(=O)c1ccncc1)c1cccc(CN2CCNCC2)c1O` are 1.05, 0.6866 and 0.21 µg/mL (≈ 0.594 µM).
With `CCN(CC)Cc1cccc(/C(C)=N/NC(=O)c2ccncc2)c1O`, the logP in data set [1] (logP) stood at 2.09. Moreover, in data set [2], the “log(1/MIC)” value came out at 0.09061 and the lowest concentration to inhibit growth (MIC) was 0.81 µg/mL (≈ 2.38 µM).
Take `CCCCCCCCC(=O)NNC(=O)c1ccncc1`: the logP in data set [1] (logP) came to 2.22. Also, in data set [2], the “log(1/MIC)” value turned out to be 1.602 and the MIC was determined as 0.03 µg/mL (≈ 0.108 µM).
The corresponding values for `C/C(=N\NC(=O)c1ccncc1)c1cccc(CN(c2ccccc2)c2ccccc2)c1O` are 4.12, -0.2064 and 1.61 µg/mL (≈ 3.69 µM).
The corresponding values for `CCCc1cc(C(=O)NN)ccn1` are -0.615, -0.9953 and 9.89 µg/mL (≈ 55.2 µM).
The corresponding values for `C/C(=N\NC(=O)c1ccncc1)c1cccc(CN2CCN(c3ccccn3)CC2)c1O` are 2.59, 0.3979 and 0.4 µg/mL (≈ 0.929 µM).
As to `Cc1cc(C(=O)NN)ccn1`, in data set [1] (logP), the logP was -1.67. Moreover, in data set [2], the “log(1/MIC)” value was found to be 0.1045 and the MIC is 0.79 µg/mL (≈ 5.23 µM).
For `CCc1cc(C(=O)NN)ccn1`, in that order: -1.14, -0.5423 and 3.49 µg/mL (≈ 21.1 µM).
For `COc1cc(C(=O)NN)ccn1`, in that order: -2.03, -1.408 and 25.6 µg/mL (≈ 153 µM).
For `C/C(=N\NC(=O)c1ccncc1)c1cccc(CN2CCN(Cc3ccccc3)CC2)c1O`, in that order: 3.83, 0.3951 and 0.4 µg/mL (≈ 0.902 µM).
For `NNC(=O)c1ccnc(Cc2ccccc2)c1`, in data set [1] (logP), the logP is -0.105. In addition, in data set [2], the “log(1/MIC)” value is -0.942 and 8.75 µg/mL (≈ 38.5 µM) was the least that counted as inhibitory (MIC).
For `C/C(=N\NC(=O)c1ccncc1)c1cccc(CN2CCN(c3ccc(F)cc3)CC2)c1O`, in that order: 3.68, 0.3963 and 0.4 µg/mL (≈ 0.894 µM).
For `NNC(=O)c1ccnc(I)c1`, in that order: -1.2, -1.825 and 66.8 µg/mL (≈ 254 µM).
For `N/C(COc1cccc(Cl)c1)=N\NC(=O)c1ccncc1`, in that order: 1.34, -0.494 and 3.12 µg/mL (≈ 10.2 µM).
On to `C/C(=N\NC(=O)c1ccncc1)c1cccc(CN2CCOCC2)c1O`, for which the logP in data set [1] (logP) came out at 1.61. Moreover, in data set [2], the “log(1/MIC)” value turned out to be 0.09122 and the MIC is 0.81 µg/mL (≈ 2.29 µM).
In data set [1] (logP), `Cc1cccc(OC/C(N)=N/NC(=O)c2ccncc2)c1` displayed a logP of 1.27. In data set [2], the “log(1/MIC)” value is listed as -0.494 and the MIC turned out to be 3.12 µg/mL (≈ 11 µM).
For `C/C(=N\NC(=O)c1ccncc1)c1cccc(CN(C)C)c1O`, in that order: 1.19, 0.09006 and 0.81 µg/mL (≈ 2.59 µM).
The corresponding values for `C/C(=N\NC(=O)c1ccncc1)c1cccc(CN(Cc2ccccc2)Cc2ccccc2)c1O` are 4.33, -0.2063 and 1.61 µg/mL (≈ 3.47 µM).
The corresponding values for `Cc1ccccc1OC/C(N)=N/NC(=O)c1ccncc1` are 1.27, -1.097 and 12.5 µg/mL (≈ 44 µM).
As to `NNC(=O)c1ccnc([N+](=O)[O-])c1`, in data set [3], the “log(1/MIC)” value was -1.83 and the MIC stood at 67.6 µg/mL (≈ 371 µM). Moreover, the logP in data set [1] (logP) is -2.21.
The corresponding values for `O=C(N/N=C/C(O)C(O)C(O)C(O)CO)c1ccco1` (stereo not given) are -0.78, 6 µg/mL (≈ 20.8 µM) and -3.86.
In the case of `C/C(=N\NC(=O)c1ccncc1)c1cccc(CN2CCN(C)CC2)c1O`, in data set [3], the “log(1/MIC)” value is given as -0.52 and the MIC amounted to 3.28 µg/mL (≈ 8.93 µM). The logP in data set [1] (logP) came to 1.99.
For `CC(C)/C=N\NC(=O)c1ccco1`, in data set [3], the “log(1/MIC)” value amounted to 0.82 and the MIC turned out to be 0.15 µg/mL (≈ 0.832 µM). Also, the logP in data set [1] (logP) amounted to 1.19.
For `C/C=N/NC(=O)c1ccncc1`, in that order: 1.4, 0.04 µg/mL (≈ 0.245 µM) and -1.93.
For the compound `CC(=O)NNC(=O)c1ccncc1`, in data set [3], the “log(1/MIC)” value is -1.18 and 15 µg/mL (≈ 83.7 µM) was the least that counted as inhibitory (MIC). Besides, the logP in data set [1] (logP) was -3.45.
For the compound `Cc1ccc(OC/C(N)=N/NC(=O)c2ccncc2)cc1`, the logP in data set [1] (logP) is 1.27. Further, in data set [2], the “log(1/MIC)” value is given as -0.796 and the MIC stood at 6.25 µg/mL (≈ 22 µM).
For the compound `CCOc1cc(C(=O)NN)ccn1`, in data set [3], the “log(1/MIC)” value is given as -1.91 and the MIC was determined as 81.5 µg/mL (≈ 450 µM). Further, the logP in data set [1] (logP) was -1.5.
For `NNC(=O)c1ccnc(-c2ccccc2)c1`, in that order: -1.03, 10.7 µg/mL (≈ 50 µM) and -0.634.
With `NNC(=O)c1ccccc1[N+](=O)[O-]`, in data set [3], the “log(1/MIC)” value is -2.48 and the MIC was 300 µg/mL (≈ 1660 µM). The logP in data set [1] (logP) is -1.1.
The compound `CC(=O)NCc1cc(C(=O)NN)ccn1` registered a logP in data set [1] (logP) of -3.75. Besides, in data set [2], the “log(1/MIC)” value is recorded as -1.704 and the MIC came out at 50.6 µg/mL (≈ 243 µM).
For `NNC(=O)c1ccnc(N)c1`, in that order: -2.84, -0.3436 and 2.21 µg/mL (≈ 14.5 µM).
In the case of `O=C(NNC(O)C(Cl)(Cl)Cl)c1ccncc1` (stereo not given), in data set [3], the “log(1/MIC)” value came to 1.4 and the MIC stood at 0.04 µg/mL (≈ 0.141 µM). In data set [1], the logP is -1.22.
`CCCCN(CCCC)Cc1cccc(/C(C)=N/NC(=O)c2ccncc2)c1O` returned a logP in data set [1] (logP) of 4.05. Moreover, in data set [2], the “log(1/MIC)” value is reported as -0.2078 and it took 1.61 µg/mL (≈ 4.06 µM) to inhibit growth (MIC).
For `NNC(=O)c1ccnc(Cl)c1`, in data set [3], the “log(1/MIC)” value is listed as -1.83 and the MIC was 67.3 µg/mL (≈ 392 µM). The logP in data set [1] (logP) is -1.61.
As to `NNC(=O)c1ccc([N+](=O)[O-])o1`, in data set [3], the “log(1/MIC)” value is 0.1 and the minimal inhibitory concentration (MIC) amounted to 0.8 µg/mL (≈ 4.68 µM). Further, in data set [1] (logP), the logP was -0.396.
Consider `N/C(COc1ccc(Cl)cc1)=N\NC(=O)c1ccncc1`, for which, in data set [1] (logP), the logP worked out at 1.34. In addition, in data set [2], the “log(1/MIC)” value is listed as -0.494 and the MIC was 3.12 µg/mL (≈ 10.2 µM).
In turn, `C/C(=N\NC(=O)c1ccncc1)c1cccc(CN2CCCC2)c1O` registered a logP in data set [1] (logP) of 1.99. For the same compound, in data set [2], the “log(1/MIC)” value is -0.2108 and 1.62 µg/mL (≈ 4.79 µM) was the least that counted as inhibitory (MIC).
